Results reported in ChEMBL document CHEMBL1147317, “Metachromin C, a new cytotoxic sesquiterpenoid from the Okinawan marine sponge Hippospongia metachromia” (J Nat Prod, 1989).
≈ marks a conversion by molar mass, not a printed value.

What was measured:
[1] = Vasodilatory activity in rabbit coronary artery assessed as inhibition of KCl-induced contraction; format: functional, tissue-based, Oryctolagus cuniculus
L5178Y = test: Cytotoxicity against mouse L5178Y cells; format: functional, cell-based
L1210 = test: Cytotoxicity against mouse L1210 cells; format: functional, cell-based

Row | Structure (SMILES) | IC50 [1] | IC50 (L5178Y) | IC50 (L1210)
1 | C=C1[C@H](C)CCC[C@]1(C)CC[C@@]1(C)C=Cc2c(O)c(OC)cc(OC)c2O1 [METACHROMIN B] | 3000 nM |  | 
2 | C=C1[C@H](C)CCC[C@]1(C)CC/C(C)=C/CC1=C(O)C(=O)C=C(OC)C1=O [METACHROMIN A] | 3000 nM |  | 
3 | COC1=CC(=O)C(O)=C(C/C=C(\C)CC[C@@]2(C)CCC=C(C)[C@H]2C)C1=O [METACHROMIN C] | 3000 nM | 0.92 µg/mL (≈ 2.57 µM) | 2 µg/mL (≈ 5.58 µM)
